Reference: the NIST ThermoML archive (doi:10.1021/je034102r)

Assay: molar heat capacity at constant pressure
Details: 101.33 kPa, Liquid, heat bridge-scanning calorimeter

CCCCn1cc[n+](C)c1.F[P-](F)(F)(F)(F)F [1-butyl-3-methylimidazolium hexafluorophosphate]
Details | molar heat capacity at constant pressure [J/K/mol]
300.05 K | 409.22
300.17 K | 409.79
300.3 K | 410.08
300.43 K | 410.08
300.55 K | 410.36
300.81 K | 410.36
300.94 K | 410.36
301.07 K | 410.64
301.19 K | 410.93
301.32 K | 410.93
301.45 K | 411.21
301.57 K | 410.93
301.7 K | 411.5
301.83 K | 411.5
301.95 K | 411.5
302.08 K | 411.78
302.35 K | 412.06
302.48 K | 412.06
302.61 K | 412.06
302.73 K | 412.35
302.86 K | 412.35
302.99 K | 412.35
303.12 K | 412.35
303.24 K | 412.92
303.37 K | 412.92
303.63 K | 413.2
303.75 K | 413.2
303.89 K | 413.2
304.02 K | 413.2
304.15 K | 413.2
304.27 K | 413.2
304.4 K | 413.49
304.53 K | 413.49
304.66 K | 413.77
304.78 K | 414.05
304.91 K | 414.05
305.19 K | 414.34
305.31 K | 414.34
305.44 K | 414.34
305.57 K | 414.62
305.7 K | 414.91
305.82 K | 414.62
305.95 K | 414.91
306.08 K | 415.19
306.2 K | 415.19
306.46 K | 415.19
306.59 K | 415.19
306.72 K | 415.47
306.84 K | 415.47
306.97 K | 415.47
307.1 K | 415.76
307.22 K | 415.76
307.35 K | 416.33
307.48 K | 415.76
307.61 K | 416.04
307.73 K | 416.04
308.01 K | 416.04
308.13 K | 416.61
308.26 K | 416.33
308.39 K | 416.61
308.51 K | 416.61
308.64 K | 416.9
308.77 K | 416.61
308.89 K | 416.61
309.02 K | 416.9
309.28 K | 416.9
309.41 K | 417.18
309.53 K | 417.46
309.66 K | 417.46
309.8 K | 417.46
309.93 K | 417.46
310.05 K | 417.46
310.18 K | 417.46
310.31 K | 417.75
310.44 K | 417.75
310.56 K | 418.03
310.84 K | 418.32
310.97 K | 418.32
311.09 K | 418.32
311.22 K | 418.32
311.35 K | 418.6
311.47 K | 418.32
311.6 K | 418.6
311.73 K | 418.6
311.86 K | 418.32
312.11 K | 418.6
312.24 K | 418.6
312.37 K | 418.88
312.49 K | 418.88
312.62 K | 419.17
312.75 K | 419.17
312.87 K | 419.45
313 K | 419.45
313.13 K | 419.45
313.25 K | 419.45
313.38 K | 419.74
313.65 K | 420.02
313.78 K | 420.02
313.91 K | 420.02
314.04 K | 420.02
314.16 K | 420.02
314.29 K | 420.02
314.42 K | 420.31
314.54 K | 420.59
314.67 K | 420.59
314.93 K | 420.59
315.05 K | 420.59
315.18 K | 420.87
315.31 K | 420.87
315.43 K | 420.87
315.56 K | 420.87
315.7 K | 420.87
315.82 K | 420.87
315.95 K | 421.16
316.08 K | 420.87
316.2 K | 421.16
316.48 K | 421.16
316.6 K | 421.44
316.73 K | 421.73
316.86 K | 421.73
316.98 K | 421.73
317.11 K | 421.73
317.24 K | 421.73
317.36 K | 421.73
317.49 K | 421.44
317.75 K | 422.01
317.88 K | 422.01
318 K | 422.29
318.13 K | 422.29
318.26 K | 422.58
318.38 K | 422.58
318.51 K | 422.58
318.64 K | 422.58
318.76 K | 422.86
318.89 K | 422.58
319.02 K | 423.15
319.29 K | 422.86
319.42 K | 422.86
319.54 K | 422.86
319.67 K | 422.86
319.8 K | 422.86
319.92 K | 422.86
320.05 K | 423.15
320.18 K | 423.15
320.3 K | 423.15
320.56 K | 423.43
320.69 K | 423.43
320.81 K | 423.72
320.94 K | 423.72
321.06 K | 423.72
321.19 K | 424
321.32 K | 424
321.44 K | 424
321.57 K | 424
321.71 K | 424
321.83 K | 424.28
322.11 K | 424.28
322.23 K | 424.28
322.36 K | 424
322.49 K | 424
322.61 K | 424
322.74 K | 424.28
322.87 K | 424.28
322.99 K | 424.57
323.12 K | 424.57
323.38 K | 424.57
323.5 K | 424.57
323.63 K | 424.85
323.76 K | 424.85
323.88 K | 424.85
324.01 K | 425.14
324.14 K | 425.14
324.26 K | 425.14
324.39 K | 425.42
324.51 K | 425.42
324.64 K | 425.42
324.91 K | 425.71
325.04 K | 425.71
325.17 K | 425.71
325.29 K | 425.71
325.42 K | 425.71
325.54 K | 425.99
325.67 K | 425.71
325.8 K | 425.99
325.92 K | 426.27
326.18 K | 426.27
326.31 K | 426.27
326.43 K | 426.27
326.56 K | 426.56
326.68 K | 426.56
326.81 K | 426.27
